Experimental data reported in PMC6353850, “Supersensitive Odorant Receptor Underscores Pleiotropic Roles of Indoles in Mosquito Ecology” (Frontiers in Cellular Neuroscience, 2019).
Where two headings read alike, the source gives them in different places.

What was measured:
OR02-ORco [1] = system: OR02-ORco; parameters: method as in Pelletier et al., 2010; conditions: Culex quinquefasciatus OR02-ORco; kairomone receptor; ref Pelletier et al., 2010; cited from earlier work
AaegOR9 [2] = molecular target: T1, AaegOR9 (Aedes aegypti, UniProt Q177X5); test: Two-electrode voltage clamp of Xenopus oocytes expressing AaegOR9-ORco (tuning curve and concentration-response); format: cell-based; conditions: for Ligand potency in AaegOR9 tuning curve (in words) / AaegOR9 response relative to indole (tuning curve): 500 nM odorant; for Ligand potency in AaegOR9 tuning curve (in words): panel of 31 indole derivatives; for Rank according to potency (No.): AaegOR9 tuning curve of Figure 1, 500 nM, 1 = most potent of 31; for AaegOR9 response relative to indole (tuning curve): responses normalized to indole, n = 10
T1 sequence (Q178U6 whole entry): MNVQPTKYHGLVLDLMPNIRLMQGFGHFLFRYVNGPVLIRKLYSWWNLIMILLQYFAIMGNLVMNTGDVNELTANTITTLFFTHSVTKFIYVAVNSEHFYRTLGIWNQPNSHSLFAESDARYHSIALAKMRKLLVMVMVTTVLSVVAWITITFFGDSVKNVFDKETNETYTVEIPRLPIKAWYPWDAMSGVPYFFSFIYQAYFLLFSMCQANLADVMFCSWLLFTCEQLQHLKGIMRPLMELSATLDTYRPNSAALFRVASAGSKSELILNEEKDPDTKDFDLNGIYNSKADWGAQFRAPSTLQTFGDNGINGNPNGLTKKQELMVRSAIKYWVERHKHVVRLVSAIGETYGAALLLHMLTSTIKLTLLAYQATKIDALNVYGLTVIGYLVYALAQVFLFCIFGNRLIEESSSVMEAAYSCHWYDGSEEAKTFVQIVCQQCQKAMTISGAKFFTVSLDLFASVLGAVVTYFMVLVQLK
T1 sequence (Q177X5 entry or part of it): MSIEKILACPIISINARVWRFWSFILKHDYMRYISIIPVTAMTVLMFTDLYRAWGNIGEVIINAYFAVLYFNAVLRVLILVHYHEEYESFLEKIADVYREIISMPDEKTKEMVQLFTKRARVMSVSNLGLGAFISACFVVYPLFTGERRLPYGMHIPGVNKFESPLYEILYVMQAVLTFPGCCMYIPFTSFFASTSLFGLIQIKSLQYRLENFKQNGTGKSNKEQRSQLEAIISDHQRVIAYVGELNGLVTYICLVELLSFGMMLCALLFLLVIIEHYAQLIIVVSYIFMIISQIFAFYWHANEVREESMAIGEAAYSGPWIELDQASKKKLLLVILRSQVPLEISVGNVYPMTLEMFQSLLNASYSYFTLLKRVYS
Method: The methodologies and protocols have been described in details elsewhere (Bohbot and Dickens, [2009]). AaegOr9 and Aaeg-ORco cRNAs (Bohbot et al., [2011]) were synthesized from linearized pSP64DV expression vectors using the mMESSAGE mMACHINE® SP6 kit (Life Technologies). Stage V-VII oocytes were harvested from Xenopus laevis females, mechanically separated, treated with collagenase (8 mg/mL, 30 min, 18°C) and rinsed in washing solution (96 mM NaCl, 2 mM KCl, 5 mM MgCl2 and 5 mM HEPES, pH 7.6). Oocytes were microinjected with 27.6 ng AaegOr9 and AaegORco cRNAs, incubated at 18°C for 3–4 days in ND96 solution (96 mM NaCl, 2 mM KCl, 5 mM MgCl2, 0.8 mM CaCl2 and 5 mM HEPES, pH 7.6), supplemented with 5% dialyzed horse serum, 50 μg/mL tetracycline, 100 μg/mL streptomycin and 550 μg/mL sodium pyruvate. Whole-cell currents were recorded using the two-microelectrode voltage-clamp technique. During recording sessions, the holding potential was maintained at −80 mV using an OC-725C oocyte clamp (Warner Instruments, LLC, Hamden, CT, USA). Oocytes placed in a RC-3Z oocyte recording chamber (Warner Instruments, LLC, Hamden, CT, USA) were exposed to odorants for 8 s. Current was allowed to return to baseline between odorant applications. Data acquisition and concentration-response analyses were carried out with a Digidata 1550A and the pCLAMP10 software (Molecular Devices, Sunnyvale, CA, USA), and analyzed using GraphPad Prism 7 (GraphPad Software Inc., La Jolla, CA, USA). Stock concentration of odorants (10^−2 M) were dissolved in ringer solution containing 2% dimethyl sulfoxide (DMSO) in order to solubilize the hydrophobic indolic compounds.
The response profile was established using multiple sessions, each including six compounds at a time and indole as an internal reference. […] All the response values were normalized to the indole reference in each recording session (Supplementary Figure 1).
For the establishment of the concentration-response curves, oocytes were exposed to increasing concentrations of indole, skatole and indole-3-carboxaldehyde (I3C; Supplementary Figure 2). Quantitative characterization of OR sensitivity was estimated using the averaged effective concentration at 50% of the maximal response (EC50) over the sample population. The data to establish the concentration response curve and EC50 of AaegOR10-skatole was extracted from a previous study (Bohbot and Dickens, [2012]).
We also included indole and skatole as references (Bohbot et al., [2011]). The screen was carried out using a low odorant concentration (500 nM) in order to mitigate the caveats associated with high ligand concentrations, including receptor adaptation, antagonist effects and technical artifacts such as broad molecular receptive ranges (Bohbot and Pitts, [2015]).

OR02-ORco [3] = system: OR02-ORco; parameters: method as in Bohbot et al., 2011; conditions: Aedes aegypti OR02-ORco; kairomone receptor; ref Bohbot et al., 2011; cited from earlier work
OR02-ORco [4] = system: OR02-ORco; parameters: method as in Wang et al., 2010; conditions: Anopheles gambiae OR02-ORco; kairomone receptor; ref Wang et al., 2010; cited from earlier work
AaegOR9 [5] = molecular target: T1, AaegOR9; parameters: method as in Bohbot et al., 2011; conditions: ref Bohbot et al., 2011; cited from earlier work
AaegOR10 = conditions: Aedes aegypti OR10-ORco; kairomone receptor; ref Bohbot et al., 2012; cited from earlier work
OR10-ORco = system: OR10-ORco; parameters: method as in Hughes et al., 2010; conditions: Culex quinquefasciatus OR10-ORco; kairomone receptor; ref Hughes et al., 2010; cited from earlier work
Water solubility = format: physicochemical; conditions: skatole vs indole

Row | SMILES | EC50 (OR02-ORco [1]) [nM] | Ligand potency in AaegOR9 tuning curve (in words) (AaegOR9 [2]) | Rank according to potency (No.) (AaegOR9 [2]) | EC50 (OR02-ORco [3]) [nM] | EC50 (OR02-ORco [4]) [nM] | Concentration range activating AaegOR9 (AaegOR9 [5]) | AaegOR9 response relative to indole (tuning curve) (AaegOR9 [2]) | AaegOR9 response relative to indole (tuning curve) (AaegOR9 [2]; listed as Skatole) | EC50 (AaegOR9 [2]; AaegOR9, concentrations 100 pM to 10 μM) [nM] | Fold higher sensitivity of AaegOR9 to skatole than to indole (EC50 ratio) (AaegOR9 [2]; AaegOR9, skatole vs indole) | EC50 (AaegOR9 [2]; Aedes aegypti OR9-ORco, kairomone receptor, This study) [nM] | Concentration range activating AaegOR9 (AaegOR9 [2]; selective and reversible activation) | EC50 (AaegOR10) [nM] | EC50 (OR10-ORco) [nM] | Water solubility relative to indole (Water solubility)
1 | c1ccc2[nH]ccc2c1 [indole, 1H-indole] | 280 | next most potent ligands | 3 | 370 | 167 | low micromolar |  |  |  |  |  |  |  |  | 
2 | Cc1c[nH]c2ccccc12 [skatole, 3-methylindole] |  | most potent ligand | 1 |  |  |  | five times higher than indole | five times more potent than indole | ~5 | 176 | 4.8 | high picomolar (below 1 nM) to low nanomolar (between 1 and 10 nM) | 109 | 90 | seven times less water soluble
